Experimental data published in patent US10072011B2, “Substituted bridged urea analogs as sirtuin modulators” (GlaxoSmithKline Intellectual Property (No.2) Limited, priority 2014, dated 2018).
Read-outs that look alike come from different tables or passages of the source.

Target: T1, SIRT1 (Homo sapiens, UniProt Q96EB6)
T1 sequence (Q96EB6 1-747): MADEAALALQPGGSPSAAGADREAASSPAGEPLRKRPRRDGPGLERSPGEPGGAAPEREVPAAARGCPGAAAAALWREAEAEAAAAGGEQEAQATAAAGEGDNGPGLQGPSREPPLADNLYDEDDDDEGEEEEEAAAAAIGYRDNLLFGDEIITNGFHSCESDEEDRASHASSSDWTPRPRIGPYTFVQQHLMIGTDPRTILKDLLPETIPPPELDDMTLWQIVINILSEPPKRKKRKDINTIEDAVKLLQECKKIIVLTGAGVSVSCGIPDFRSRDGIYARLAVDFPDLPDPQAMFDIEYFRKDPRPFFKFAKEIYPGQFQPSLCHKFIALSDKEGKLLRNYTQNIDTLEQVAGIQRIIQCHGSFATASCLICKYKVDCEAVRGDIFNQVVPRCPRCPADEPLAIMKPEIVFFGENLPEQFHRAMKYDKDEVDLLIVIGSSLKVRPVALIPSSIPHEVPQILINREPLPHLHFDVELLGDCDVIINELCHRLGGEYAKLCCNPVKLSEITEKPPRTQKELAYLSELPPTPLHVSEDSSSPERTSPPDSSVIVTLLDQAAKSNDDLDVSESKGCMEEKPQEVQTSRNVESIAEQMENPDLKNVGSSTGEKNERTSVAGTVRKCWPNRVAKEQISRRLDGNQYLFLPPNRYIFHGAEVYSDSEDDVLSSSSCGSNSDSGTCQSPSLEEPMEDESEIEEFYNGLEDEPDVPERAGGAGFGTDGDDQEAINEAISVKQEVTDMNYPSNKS
Assay: Trp mass spectrometry assay of SIRT1 activation (Ac-R-H-K-K(Ac)-W-NH2 peptide)
Format: biochemical
Conditions: for Emax: 25 min, read-out: TRP MAX RESP (percent maximum fold activation)
In short: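 Mass spectrometry read-out (OAADPR formed, or deacetylated Trp peptide) after a 25 min NAD-dependent deacetylation by E. coli-expressed His-SIRT1, stopped with formic acid.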

[1] = Trp peptide 0.5 μM, 120 μM βNAD+, 10 nM SIRT1, 25 min at 25° C., relative to control (100%)
[2] = Trp peptide 0.5 μM, 120 μM βNAD+, 10 nM SIRT1, 25 min at 25° C.

Structure (SMILES)	Emax [1] [%]	TRP Activity (EC1.5, concentration of test compound that results in 150% activation of SIRT1) [2]	TRP MAX RESP (percent maximum fold activation) [1]	Emax [%]
CC[C@@H](NC(=O)c1ccc2c(n1)N(C(=O)Nc1cc(OC[C@H](O)CO)ccn1)[C@H]1CCN2C1)C(F)(F)F [Example 90, (4S)—N5-(4-((R)-2,3-dihydroxypropoxy)pyridin-2-yl)-N7-((R)-1,1,1-trifluorobutan-2-yl)-3,4-dihydro-1,4-methanopyrido[2,3-b][1,4]diazepine-5,7(2H)-dicarboxamide]	> 150	A (EC1.5<1 μM)	–	–
Cc1ccc2c(NC(=O)N3c4nc(C(=O)NCC(F)(F)F)ccc4N4CC[C@H]3C4)n[nH]c2n1 [Example 64, (4S)—N5-(6-methyl-1H-pyrazolo[3,4-b]pyridin-3-yl)-N7-(2,2,2-trifluoroethyl)-3,4-dihydro-1,4-methanopyrido[2,3-b][1,4]diazepine-5,7(2H)-dicarboxamide]	> 150	A (EC1.5<1 μM)	–	–
O=C(NCC(F)(F)F)c1ccc2c(n1)N(C(=O)Nc1ccccn1)[C@H]1CCN2C1 [Example 1]	> 150	A (EC1.5<1 μM)	–	–
O=C(N[C@H](CO)C(F)(F)F)c1ccc2c(n1)N(C(=O)Nc1cnccn1)[C@H]1CCN2C1 (single isomer, unassigned) [Example 119]	> 150	A (EC1.5<1 μM)	–	–
C[C@@H](NC(=O)c1ccc2c(n1)N(C(=O)Nc1cc(OC[C@H](O)CO)ccn1)[C@H]1CCN2C1)C(F)(F)F [Example 74, (4S)—N5-(4-((R)-2,3-dihydroxypropoxy)pyridin-2-yl)-N7-((R)-1,1,1-trifluoropropan-2-yl)-3,4-dihydro-1,4-methanopyrido[2,3-b][1,4]diazepine-5,7(2H)-dicarboxamide]	> 150	–	–	–
Cc1ccc2c(NC(=O)N3c4nc(C(=O)NC5CC5)ccc4N4CC[C@H]3C4)n[nH]c2n1 [Example 54, (4S)—N7-cyclopropyl-N5-(6-methyl-1H-pyrazolo[3,4-b]pyridin-3-yl)-3,4-dihydro-1,4-methanopyrido[2,3-b][1,4]diazepine-5,7(2H)-dicarboxamide]	> 150	B (EC1.5 1-25 μM)	–	–
O=C(NCC(F)(F)F)c1ccc2c(n1)N(C(=O)Nc1ncc3[nH]ccc3n1)[C@H]1CCN2C1 [Example 140, (4S)—N5-(5H-pyrrolo[3,2-d]pyrimidin-2-yl)-N7-(2,2,2-trifluoroethyl)-3,4-dihydro-1,4-methanopyrido[2,3-b][1,4]diazepine-5,7(2H)-dicarboxamide]	–	A (EC1.5<1 μM)	–	> 150
C#C[C@@H](C)NC(=O)c1ccc2c(n1)N(C(=O)Nc1ccccn1)[C@H]1CCN2C1 [Example 105, (4S)—N7-((R)-but-3-yn-2-yl)-N5-(pyridin-2-yl)-3,4-dihydro-1,4-methanopyrido[2,3-b][1,4]diazepine-5,7(2H)-dicarboxamide]	> 150	A (EC1.5<1 μM)	–	–
O=C(NC1CC1)c1ccc2c(n1)N(C(=O)Nc1cc(-c3cnco3)ccn1)[C@H]1CCN2C1 [Example 78, (4S)—N7-cyclopropyl-N5-(4-(oxazol-5-yl)pyridin-2-yl)-3,4-dihydro-1,4-methanopyrido[2,3-b][1,4]diazepine-5,7(2H)-dicarboxamide]	> 150	A (EC1.5<1 μM)	–	–
O=C(N[C@H](CO)C(F)(F)F)c1ccc2c(n1)N(C(=O)Nc1cc(OC[C@H](O)CO)ccn1)[C@H]1CCN2C1 (single isomer, unassigned) [Example 92]	> 150	A (EC1.5<1 μM)	–	–

Second part, led by results:

Emax [1] [%]	TRP Activity (EC1.5, concentration of test compound that results in 150% activation of SIRT1) [2]	TRP MAX RESP (percent maximum fold activation) [1]	Structure (SMILES)	Emax [%]
> 150	A (EC1.5<1 μM)	–	NC(=O)c1ccc(NC(=O)N2c3nc(C(=O)NCC(F)(F)F)ccc3N3CC[C@H]2C3)nc1 [Example 143, (4S)—N5-(5-carbamoylpyridin-2-yl)-N7-(2,2,2-trifluoroethyl)-3,4-dihydro-1,4-methanopyrido[2,3-b][1,4]diazepine-5,7(2H)-dicarboxamide]	–
> 150	A (EC1.5<1 μM)	–	C[C@@H](NC(=O)c1ccc2c(n1)N(C(=O)Nc1cnccn1)[C@H]1CCN2C1)C(F)(F)F [Example 237, (4S)—N5-(pyrazin-2-yl)-N7-((R)-1,1,1-trifluoropropan-2-yl)-3,4-dihydro-1,4-methanopyrido[2,3-b][1,4]diazepine-5,7(2H)-dicarboxamide]	–
> 150	B (EC1.5 1-25 μM)	–	Cc1nc(NC(=O)N2c3nc(C(=O)NC4CC4)ccc3N3CC[C@H]2C3)ccc1F [Example 205, (4S)—N7-cyclopropyl-N5-(5-fluoro-6-methylpyridin-2-yl)-3,4-dihydro-1,4-methanopyrido[2,3-b][1,4]diazepine-5,7(2H)-dicarboxamide]	–
> 150	B (EC1.5 1-25 μM)	–	Cc1ccc2c(NC(=O)N3c4nc(C(=O)NCC(N)C(F)(F)F)ccc4N4CC[C@H]3C4)n[nH]c2n1 (single isomer, unassigned) [Example 197]	–
> 150	B (EC1.5 1-25 μM)	–	O=C(N[C@@H]1CC1(F)F)c1ccc2c(n1)N(C(=O)Nc1cnc(OC[C@H](O)CO)cn1)[C@H]1CCN2C1 (single isomer, unassigned) [Example 260]	–
> 150	B (EC1.5 1-25 μM)	–	CC(C)(O)CNC(=O)c1ccc2c(n1)N(C(=O)Nc1ccccn1)[C@H]1CCN2C1 [Example 202, (4S)—N7-(2-hydroxy-2-methylpropyl)-N5-(pyridin-2-yl)-3,4-dihydro-1,4-methanopyrido[2,3-b][1, 4] diazepine-5,7(2H)-dicarboxamide]	–
–	A (EC1.5<1 μM)	B (Fold Activation<150%)	COc1cc(NC(=O)N2c3nc(C(=O)NC4CC4(F)F)ccc3N3CC[C@H]2C3)ncn1 (single isomer, unassigned) [Example 303]	–
> 150	A (EC1.5<1 μM)	–	C[C@@H](NC(=O)c1ccc2c(n1)N(C(=O)Nc1cc(-n3ccnn3)ccn1)[C@H]1CCN2C1)C(F)(F)F [Example 182, (4S)—N5-(4-(1H-1,2,3-triazol-1-yl)pyridin-2-yl)-N7-((R)-1,1,1-trifluoropropan-2-yl)-3,4-dihydro-1,4-methanopyrido[2,3-b][1,4]diazepine-5,7(2H)-dicarboxamide]	–
> 150	B (EC1.5 1-25 μM)	–	C[C@@H](NC(=O)c1ccc2c(n1)N(C(=O)Nc1cn(C)ccc1=O)[C@H]1CCN2C1)C(F)(F)F [Example 188, (4S)—N5-(1-methyl-4-oxo-1,4-dihydropyridin-3-yl)-N7-((R)-1,1,1-trifluoropropan-2-yl)-3,4-dihydro-1,4-methanopyrido[2,3-b][1,4]diazepine-5,7(2H)-dicarboxamide]	–
–	B (EC1.5 1-25 μM)	B (Fold Activation<150%)	C=CCNC(=O)c1ccc2c(n1)N(C(=O)Nc1cc(OC[C@H](O)CO)ccn1)[C@H]1CCN2C1 [Example 315, (4S)—N7-allyl-N5-(4-((R)-2,3-dihydroxypropoxy)pyridin-2-yl)-3,4-dihydro-1,4-methanopyrido[2,3-b][1,4]diazepine-5,7(2H)-dicarboxamide]	–
> 150	A (EC1.5<1 μM)	–	O=C(NC1CC1)c1ccc2c(n1)N(C(=O)Nc1cc3c(cn1)OCCC3)[C@H]1CCN2C1 [Example 160, (4S)—N7-cyclopropyl-N5-(3,4-dihydro-2H-pyrano[2,3-c]pyridin-6-yl)-3,4-dihydro-1,4-methanopyrido[2,3-b][1,4]diazepine-5,7(2H)-dicarboxamide]	–
> 150	A (EC1.5<1 μM)	–	Cc1cc(C(=O)N[C@H](C)C(F)(F)F)nc2c1N1CC[C@@H](C1)N2C(=O)Nc1ccc(OC[C@@H](O)CO)cn1 [Example 290, (4S)—N5-(5-((S)-2,3-dihydroxypropoxy)pyridin-2-yl)-9-methyl-N7-((R)-1,1,1-trifluoropropan-2-yl)-3,4-dihydro-1,4-methanopyrido[2,3-b][1,4]diazepine-5,7(2H)-dicarboxamide]	–
